Experimental findings from DBAASP are described below.

By MIC is commonly meant the lowest concentration found to suppress growth. Low readings indicate inhibition by little substance, high ones a need for much substance.

SMILES strings stand for the structures. ≈ marks a conversion by molar mass, not a printed value. A value given as a limit tells only on which side of the number the result lay.

Among the test systems are Escherichia coli BW25113; Bacillus cereus AS1.126; Escherichia coli AS1.349.
What all share (assay): ≥ marks a high value that may be exact or a test limit, other limits are often not marked, values filed in µg/mL are converted to µM
Experiment [1] has as its system Candida albicans ATCC 10231.
Experiment [2] relates to Pseudomonas aeruginosa ATCC 9027.
The test system of experiment [3] is Staphylococcus epidermidis ATCC 12228.
Experiment [4] relates to Escherichia coli ATCC 25922.
The subject of experiment [5] is Staphylococcus aureus ATCC 29737.
Experiment [6] concerns Staphylococcus aureus USA 300.
The subject of experiment [7] is Candida albicans ATCC 90028.
Experiment [8] concerns Staphylococcus aureus USA 100.
Experiment [9] concerns Cryptococcus neoformans ATCC 34881.
Experiment [10] concerns Salmonella enterica subsp. enterica serovar Enteritidis ATCC 13076.
The test system of experiment [11] is Streptococcus mutans ATCC 25175.
Experiment [12] deals with Bacillus subtilis ATCC 62037.
In experiment [13] the test system is Escherichia coli ATCC 27325.
Experiment [14] concerns Pseudomonas putida ATCC 17426.
Experiment [15] has as its system Saccharomyces cerevisiae ATCC 44774.
Experiment [16] relates to Staphylococcus aureus ATCC 15752.
For experiment [17], the system named is Lactococcus lactis AS1.1690.
Experiment [18] deals with Enterococcus faecium CGMCC 1.2334.
The subject of experiment [19] is Staphylococcus aureus AS1.72.
For experiment [20], the system named is Pseudomonas aeruginosa CGMCC 1.860.
Experiment [21] deals with Enterococcus faecalis CGMCC 1.595.
Experiment [22] deals with Cronobacter sakazakii DPC 6440.
Experiment [23] relates to Listeria monocytogenes LO28.

With `CC[C@H](C)[C@H](N)C(=O)N[C@@H](CCCN=C(N)N)C(=O)N[C@H](C(=O)N[C@@H](CCCCN)C(=O)N[C@H](C(=O)N[C@@H](CCCN=C(N)N)C(=O)N[C@H](C(=O)N[C@@H](CCCCN)C(=O)N[C@H](C(=O)N[C@@H](CCCN=C(N)N)C(=O)N[C@H](C(=O)N[C@@H](CCCCN)C(N)=O)C(C)C)[C@@H](C)CC)C(C)C)[C@@H](C)CC)C(C)C` [IRVKIRVKIRVK], the MIC in experiment [1] stood at 82.9 µM (≈ 125 µg/mL); in [2], 41.4 µM (≈ 62.5 µg/mL); in experiment [3], 1.33 µM (≈ 2 µg/mL); in [4], 10.3 µM (≈ 15.6 µg/mL); in experiment [5] it was 20.8 µM (≈ 31.3 µg/mL).
Regarding `CC(=O)N[C@@H](CCCCN)C(=O)N1CCC[C@H]1C(=O)N[C@H](C(N)=O)C(C)C` [KPV], the MIC in experiment [6] was no less than 100 µM; in experiment [7] it was no less than 100 µM; in [2], greater than 100 µM; in [8], no less than 100 µM.
`CC(C)C[C@H](NC(=O)CNC(=O)[C@H](C)NC(=O)[C@@H](N)CCCN=C(N)N)C(=O)N[C@@H](CCC(N)=O)C(=O)N[C@@H](Cc1ccccc1)C(=O)N1CCC[C@H]1C(=O)N[C@H](C(=O)NCC(=O)N[C@@H](CCCCN)C(=O)N[C@@H](CC(C)C)C(=O)N[C@@H](CC(C)C)C(=O)N[C@@H](CCCCN)C(=O)N[C@@H](CCCCN)C(=O)N[C@@H](CC(C)C)C(=O)N[C@@H](CC(C)C)C(=O)N[C@@H](CCCCN)C(=O)N[C@@H](CCCN=C(N)N)C(=O)N[C@@H](CC(C)C)C(=O)N[C@@H](CCCCN)C(=O)N[C@@H](CCCN=C(N)N)C(=O)O)C(C)C` [RAGLQFPVGKLLKKLLKRLKR]: the MIC came to 0.812 µM (≈ 2 µg/mL) in experiment [9]; 0.812 µM (≈ 2 µg/mL) in [1]; 0.406 µM (≈ 1 µg/mL) in experiment [10]; 0.812 µM (≈ 2 µg/mL) in [11]; 0.812 µM (≈ 2 µg/mL) in experiment [12]; 0.812 µM (≈ 2 µg/mL) in experiment [13]. The MIC in experiment [14], in experiment [15] and in [16] was 0.812 µM (≈ 2 µg/mL) each time.
For the molecule `CC[C@H](C)[C@H](NC(=O)[C@@H]1CCCN1C(=O)[C@@H]1CCCN1C(=O)[C@H](CCCN=C(N)N)NC(=O)[C@H](Cc1ccccc1)NC(=O)[C@@H](N)CCCN=C(N)N)C(=O)N[C@@H](CCCN=C(N)N)C(=O)N[C@@H](CCCN=C(N)N)C(=O)N1CCC[C@H]1C(=O)N1CCC[C@H]1C(=O)N[C@H](C(=O)N[C@@H](CCCN=C(N)N)C(=O)N1CCC[C@H]1C(=O)N1CCC[C@H]1C(=O)N[C@@H](Cc1ccccc1)C(=O)N[C@@H](Cc1ccc(O)cc1)C(=O)N[C@@H](Cc1c[nH]c2ccccc12)C(=O)O)[C@@H](C)CC` [RFRPPIRRPPIRPPFYW], the MIC with Escherichia coli BW25113 stood at 16 µM (≈ 36 µg/mL).
Consider `C[C@H](NC(=O)[C@H](CCCN=C(N)N)NC(=O)[C@H](Cc1cnc[nH]1)NC(=O)[C@H](Cc1c[nH]c2ccccc12)NC(=O)[C@H](Cc1ccccc1)NC(=O)[C@H](CCCN=C(N)N)NC(=O)[C@@H](N)CCCN=C(N)N)C(=O)N[C@@H](Cc1cnc[nH]1)C(=O)O` [RRFWHRAH], for which the MIC (in experiment [17]; in experiment [18]; in experiment [19]; in experiment [20]; with Bacillus cereus AS1.126; against Escherichia coli AS1.349) was no less than 100 µM each time. The same molecule registered an MIC in experiment [21] of no less than 100 µM.
With `CC(C)C[C@H](NC(=O)[C@H](CCCCN)NC(=O)[C@H](CCCN=C(N)N)NC(=O)[C@H](Cc1cnc[nH]1)NC(=O)[C@H](C)NC(=O)[C@H](CCCN=C(N)N)NC(=O)[C@H](Cc1cnc[nH]1)NC(=O)[C@H](Cc1c[nH]c2ccccc12)NC(=O)[C@H](Cc1ccccc1)NC(=O)[C@H](CCCN=C(N)N)NC(=O)[C@H](CCCN=C(N)N)NC(=O)[C@H](Cc1c[nH]c2ccccc12)NC(=O)[C@H](Cc1cnc[nH]1)NC(=O)[C@H](CCCN=C(N)N)NC(=O)[C@H](Cc1c[nH]c2ccccc12)NC(=O)[C@@H](NC(=O)[C@H](CCCCN)NC(=O)[C@@H](N)CO)C(C)C)C(=O)O` [SKVWRHWRRFWHRAHRKL], the MIC in [17] turned out to be 3.13 µM (≈ 7.96 µg/mL); in experiment [18], 3.13 µM (≈ 7.96 µg/mL); in experiment [19] it was 3.13 µM (≈ 7.96 µg/mL); in experiment [20], 1.56 µM (≈ 3.97 µg/mL); with Bacillus cereus AS1.126, 3.13 µM (≈ 7.96 µg/mL); in the experiment with Escherichia coli AS1.349, 6.25 µM (≈ 15.9 µg/mL). Also, in experiment [21], the MIC was 1.56 µM (≈ 3.97 µg/mL).
For the molecule `CC(C)[C@H](N)C(=O)N[C@@H](Cc1c[nH]c2ccccc12)C(=O)N[C@@H](CCCN=C(N)N)C(=O)N[C@@H](Cc1cnc[nH]1)C(=O)N[C@@H](Cc1c[nH]c2ccccc12)C(=O)N[C@@H](CCCN=C(N)N)C(=O)N[C@@H](CCCN=C(N)N)C(=O)N[C@@H](Cc1ccccc1)C(=O)N[C@@H](Cc1c[nH]c2ccccc12)C(=O)N[C@@H](Cc1cnc[nH]1)C(=O)N[C@@H](CCCN=C(N)N)C(=O)O` [VWRHWRRFWHR], the MIC in [17] amounted to 6.25 µM (≈ 10.8 µg/mL); in [18] it was 3.13 µM (≈ 5.39 µg/mL); in [19] it was 3.13 µM (≈ 5.39 µg/mL); in experiment [20] it was 3.13 µM (≈ 5.39 µg/mL); with Bacillus cereus AS1.126, 3.13 µM (≈ 5.39 µg/mL); in the experiment with Escherichia coli AS1.349, 6.25 µM (≈ 10.8 µg/mL). In addition, the MIC in experiment [21] is 3.13 µM (≈ 5.39 µg/mL).
For `CC[C@H](C)[C@H](NC(=O)[C@@H](N)Cc1c[nH]c2ccccc12)C(=O)N[C@@H](CCC(N)=O)C(=O)N1CCC[C@H]1C(=O)N[C@@H](C)C(=O)N[C@H](C(=O)N[C@@H](C)C(=O)N[C@H](C(=O)N[C@H](C(=O)N1CCC[C@H]1C(=O)N[C@@H](Cc1ccc(O)cc1)C(=O)N[C@H](C(=O)N[C@@H](C)C(=O)N[C@@H](Cc1ccc(O)cc1)C(=O)N[C@@H](CC(C)C)C(=O)O)C(C)C)[C@@H](C)CC)C(C)C)[C@@H](C)O` [WIQPATAVIPYVAYL], the MIC in experiment [22] was no less than 625 µM; in experiment [23] it was no less than 156 µM.
With `CC[C@H](C)[C@H](NC(=O)[C@@H](N)Cc1c[nH]c2ccccc12)C(=O)N[C@@H](CCC(N)=O)C(=O)N1CCC[C@H]1C(=O)N[C@@H](CCCCN)C(=O)N[C@H](C(=O)N[C@@H](CCCCN)C(=O)N[C@H](C(=O)N[C@H](C(=O)N1CCC[C@H]1C(=O)N[C@@H](Cc1c[nH]c2ccccc12)C(=O)N[C@@H](Cc1c[nH]c2ccccc12)C(=O)N[C@@H](Cc1c[nH]c2ccccc12)C(=O)N[C@@H](Cc1c[nH]c2ccccc12)C(=O)N[C@@H](Cc1c[nH]c2ccccc12)C(=O)O)[C@@H](C)CC)C(C)C)[C@@H](C)O` [WIQPKTKVIPWWWWW], the figures for the MIC in experiment [22] and in experiment [23] were no less than 78.1 µM and 4.88 µM (≈ 10.5 µg/mL), respectively.
In the case of `CC[C@H](C)[C@H](NC(=O)[C@@H](N)Cc1c[nH]c2ccccc12)C(=O)N[C@@H](CCC(N)=O)C(=O)N1CCC[C@H]1C(=O)N[C@@H](CCCCN)C(=O)N[C@H](C(=O)N[C@@H](CCCCN)C(=O)N[C@H](C(=O)N[C@H](C(=O)N1CCC[C@H]1C(=O)O)[C@@H](C)CC)C(C)C)[C@@H](C)O` [WIQPKTKVIP], the MIC in [22] is no less than 625 µM; in [23] it was no less than 156 µM.
Consider `NC(=O)[C@H](Cc1c[nH]c2ccccc12)NC(=O)[C@H](Cc1c[nH]c2ccccc12)NC(=O)[C@H](Cc1c[nH]c2ccccc12)NC(=O)[C@@H](N)Cc1c[nH]c2ccccc12` [WWWW], for which, in experiment [8], the MIC was no less than 100 µM.
